Measured values reported in patent publication US20250360167A1 (Keryx Biopharmaceuticals, Inc., priority 2013, published 2025).

What was measured:
Format in all cases: in vivo, human
hemoglobin [1] = assay: Phase 2 trial (Example 2): hemoglobin; details: ITT group, n = 72
Description: The key secondary endpoints of the study were the mean changes in ferritin, hemoglobin and FGF-23 from baseline to the end of the 12-week treatment period versus placebo in the ITT group.

hemoglobin [2] = assay: Phase 3 trial (Example 1): hemoglobin; set-up: Hemoglobin, Mean / Hemoglobin, Median / Hemoglobin, Change from Baseline, Mean / Hemoglobin, Change from Baseline, Median / Hemoglobin, LS Mean: unit not given here; details: for Hemoglobin, Mean / Hemoglobin, Median / Hemoglobin, LS Mean / Hemoglobin, Change from Baseline, Mean / Hemoglobin, Change from Baseline, Median / Hemoglobin, Treatment Differences, LS Mean (KRX-0502) − LS Mean (control), (SE): Table 17
Description: Complete Blood Count (CBC) (white blood cell [WBC] count, white blood cell types [WBC differential], red blood cell [RBC] count, hematocrit [HCT], hemoglobin [Hgb], red blood cell indices, platelet [thrombocyte] count) was done at the Randomization Visit (Visit 4); at Visits 11 (Week 12), 14 (Week 24), 17 (Week 36), 20 (Week 48), and 21 (Week 52) of the 52-week Safety Assessment Period; and at Visit 25 (Week 56) of the Efficacy Assessment Period.

serum bicarbonate = assay: Phase 3 trial (Example 1): serum bicarbonate concentration; details: for Serum Bicarbonate Concentration, Mean / Serum Bicarbonate Concentration, Median / Serum Bicarbonate Concentration, LS Mean / Serum Bicarbonate Concentration, Change from Baseline, Mean / Serum Bicarbonate Concentration, Change from Baseline, Median / Serum Bicarbonate Concentration, Treatment Differences, LS Mean (KRX-0502) − LS Mean (control), (SE): Table 18; for Serum Bicarbonate Concentration, LS Mean: ANCOVA
Experimental: Serum bicarbonate was performed at a local laboratory and was done at the Randomization Visit (Visit 4); at Visits 11 (Week 12), 14 (Week 24), 17 (Week 36), 20 (Week 48) and 21 (Week 52) during the Safety Assessment Period; and at Visit 25 (Week 56) of the Efficacy Assessment Period.
• 1. Change in serum calcium concentration at Weeks 12, 24, 36, 48, and 52 as compared to baseline (Visit 4). This variable will be analyzed using LOCF methodology. ANCOVA will be employed. The model will include treatment (fixed effect), and baseline (covariate). • 2. Change in ferritin, and TSAT at Weeks 12, 24, 36 and 48 as compared to baseline (Visit 4). This variable will be analyzed using LOCF methodology. ANCOVA will be employed. The model will include treatment (fixed effect), and baseline (covariate). • 3. Change in serum iron and TIBC at Weeks 12, 24, 36, 48, and 52 as compared to baseline (Visit 4). This variable will be analyzed using LOCF methodology. ANCOVA will be employed. The model will include treatment (fixed effect), and baseline (covariate). • 4. Change in Ca x P product at Weeks 12, 24, 36, 48, and 52 as compared to baseline (Visit 4). This variable will be analyzed using LOCF methodology. ANCOVA will be employed. The model will include treatment (fixed effect), and baseline (covariate). • 5. Change in iPTH at Weeks 12, 36, 52, and 56 as compared to baseline (Visit 4). This variable will be analyzed using LOCF methodology. ANCOVA will be employed. The model will include treatment (fixed effect), and baseline (covariate). • 6. Change in serum […], vitamin A, vitamin B-12, vitamin E, vitamin K and folic acid at Weeks 12, 36, and 52 as compared to baseline (Visit 4). This variable will be analyzed using LOCF methodology. ANCOVA will be employed. The model will include treatment (fixed effect), and baseline (covariate). • 7. Change in serum bicarbonate concentration at Weeks 12, 36, and 52 as compared to baseline (Visit 4). This variable will be analyzed using LOCF methodology. ANCOVA will be employed. The model will include treatment (fixed effect), and baseline (covariate). • 8. Change in IV iron intake at Weeks 12, 24, 36, 48, and 52 as compared to baseline (Visit 4). This variable will be analyzed using LOCF methodology. ANCOVA will be employed. The model will include treatment (fixed effect), and baseline (covariate). • 9. Change in the use of EPO (ESA) administered at Weeks 12, 24, 36, 48, and 52 as compared to baseline (Visit 4). This variable will be analyzed using LOCF methodology. ANCOVA will be employed. The model will include treatment (fixed effect), and baseline (covariate). • 10. Change in the use of Vitamin D supplementation (and its analogs) and Sensipar (cinacalcet) at Weeks 12, 24, 36, 48, and 52 as compared to baseline (Visit 4). This variable will be analyzed using LOCF methodology. ANCOVA will be employed. The model will include treatment (fixed effect), and baseline (covariate). • 11. Change in LDL, HDL, and triglycerides at Weeks 12, 36, and 52 as compared to baseline (Visit 4). This variable will be analyzed using LOCF methodology. ANCOVA will be employed. The model will include treatment (fixed effect), and baseline (covariate).

[3] = Day 0 Baseline, Safety Assessment Period

iron (+3), x (1, 2, 3-propanetricarboxylic acid, 2-hydroxy-), y (H2O) [KRX-0502]
Mean Hemoglobin, Baseline (hemoglobin [1]; Baseline): 10.5 g/dL
Mean Hemoglobin, End of Treatment (Week 12) (hemoglobin [1]; Week 12, last observation carried forward): 11.0 g/dL
Mean Hemoglobin, LS Mean Difference from Active Control Group at Week 52 (hemoglobin [2]; ANCOVA, Table E): 0.4 g/dL
Mean Hemoglobin (hemoglobin [2]; Baseline (Day 0), Table E): 11.6 g/dL
Hemoglobin, Mean (hemoglobin [2]; [3]): 11.61
Hemoglobin, Median (hemoglobin [2]; [3]): 11.45
Mean Hemoglobin, Change from Baseline at Week 52 (hemoglobin [2]; Table E): -0.2 g/dL
Hemoglobin, LS Mean (hemoglobin [2]; Week 12, ANCOVA): 11.83
Hemoglobin, Change from Baseline, Mean (hemoglobin [2]; Week 12): 0.19
Hemoglobin, Change from Baseline, Median (hemoglobin [2]; Week 12): 0.10
Hemoglobin, Mean (hemoglobin [2]; Week 12): 11.82
Hemoglobin, Median (hemoglobin [2]; Week 12): 11.70
Hemoglobin, Treatment Differences, LS Mean (KRX-0502) − LS Mean (control), (SE) (hemoglobin [2]; Week 12): 0.30 (0.14)
Hemoglobin, LS Mean (hemoglobin [2]; Week 24, ANCOVA): 11.56
Hemoglobin, Change from Baseline, Mean (hemoglobin [2]; Week 24): −0.08
Hemoglobin, Change from Baseline, Median (hemoglobin [2]; Week 24): −0.10
Hemoglobin, Mean (hemoglobin [2]; Week 24): 11.55
Hemoglobin, Median (hemoglobin [2]; Week 24): 11.30
Hemoglobin, Treatment Differences, LS Mean (KRX-0502) − LS Mean (control), (SE) (hemoglobin [2]; Week 24): 0.12 (0.13)
Hemoglobin, LS Mean (hemoglobin [2]; Week 36, ANCOVA): 11.55
Hemoglobin, Change from Baseline, Mean (hemoglobin [2]; Week 36): −0.08
Hemoglobin, Change from Baseline, Median (hemoglobin [2]; Week 36): −0.10
Hemoglobin, Mean (hemoglobin [2]; Week 36): 11.54
Hemoglobin, Median (hemoglobin [2]; Week 36): 11.20
Hemoglobin, Treatment Differences, LS Mean (KRX-0502) − LS Mean (control), (SE) (hemoglobin [2]; Week 36): 0.27 (0.14)
Hemoglobin, LS Mean (hemoglobin [2]; Week 48, ANCOVA): 11.52
Hemoglobin, Change from Baseline, Mean (hemoglobin [2]; Week 48): −0.12
Hemoglobin, Change from Baseline, Median (hemoglobin [2]; Week 48): −0.20
Hemoglobin, Mean (hemoglobin [2]; Week 48): 11.50
Hemoglobin, Median (hemoglobin [2]; Week 48): 11.20
Hemoglobin, Treatment Differences, LS Mean (KRX-0502) − LS Mean (control), (SE) (hemoglobin [2]; Week 48): 0.30 (0.14)
Hemoglobin, LS Mean (hemoglobin [2]; Week 52, ANCOVA): 11.44
Mean Hemoglobin (hemoglobin [2]; Week 52, LOCF, Table E): 11.4 g/dL
Hemoglobin, Change from Baseline, Mean (hemoglobin [2]; Week 52): −0.20
Hemoglobin, Change from Baseline, Median (hemoglobin [2]; Week 52): −0.20
Hemoglobin, Mean (hemoglobin [2]; Week 52): 11.42
Hemoglobin, Median (hemoglobin [2]; Week 52): 11.20
Hemoglobin, Treatment Differences, LS Mean (KRX-0502) − LS Mean (control), (SE) (hemoglobin [2]; Week 52): 0.36 (0.14)
Serum Bicarbonate Concentration, Mean (serum bicarbonate; [3]): 23.92
Serum Bicarbonate Concentration, Median (serum bicarbonate; [3]): 24.00
Serum Bicarbonate Concentration, LS Mean (serum bicarbonate; Week 12): 25.60
Serum Bicarbonate Concentration, Change from Baseline, Mean (serum bicarbonate; Week 12): 1.57
Serum Bicarbonate Concentration, Change from Baseline, Median (serum bicarbonate; Week 12): 1.05
Serum Bicarbonate Concentration, Mean (serum bicarbonate; Week 12): 25.63
Serum Bicarbonate Concentration, Median (serum bicarbonate; Week 12): 25.00
Serum Bicarbonate Concentration, Treatment Differences, LS Mean (KRX-0502) − LS Mean (control), (SE) (serum bicarbonate; Week 12): −0.72 (0.37)
Serum Bicarbonate Concentration, LS Mean (serum bicarbonate; Week 24): 25.35
Serum Bicarbonate Concentration, Change from Baseline, Mean (serum bicarbonate; Week 24): 1.48
Serum Bicarbonate Concentration, Change from Baseline, Median (serum bicarbonate; Week 24): 1.00
Serum Bicarbonate Concentration, Mean (serum bicarbonate; Week 24): 25.39
Serum Bicarbonate Concentration, Median (serum bicarbonate; Week 24): 25.45
Serum Bicarbonate Concentration, Treatment Differences, LS Mean (KRX-0502) − LS Mean (control), (SE) (serum bicarbonate; Week 24): −0.39 (0.38)
Serum Bicarbonate Concentration, LS Mean (serum bicarbonate; Week 36): 25.22
Serum Bicarbonate Concentration, Change from Baseline, Mean (serum bicarbonate; Week 36): 1.36
Serum Bicarbonate Concentration, Change from Baseline, Median (serum bicarbonate; Week 36): 1.00
Serum Bicarbonate Concentration, Mean (serum bicarbonate; Week 36): 25.27
Serum Bicarbonate Concentration, Median (serum bicarbonate; Week 36): 25.00
Serum Bicarbonate Concentration, Treatment Differences, LS Mean (KRX-0502) − LS Mean (control), (SE) (serum bicarbonate; Week 36): −0.15 (0.34)
Serum Bicarbonate Concentration, LS Mean (serum bicarbonate; Week 48): 24.78
Serum Bicarbonate Concentration, Change from Baseline, Mean (serum bicarbonate; Week 48): 0.91
Serum Bicarbonate Concentration, Change from Baseline, Median (serum bicarbonate; Week 48): 1.00
Serum Bicarbonate Concentration, Mean (serum bicarbonate; Week 48): 24.81
Serum Bicarbonate Concentration, Median (serum bicarbonate; Week 48): 25.00
Serum Bicarbonate Concentration, Treatment Differences, LS Mean (KRX-0502) − LS Mean (control), (SE) (serum bicarbonate; Week 48): −0.52 (0.36)
Serum Bicarbonate Concentration, LS Mean (serum bicarbonate; Week 52): 24.60
Serum Bicarbonate Concentration, Change from Baseline, Mean (serum bicarbonate; Week 52): 0.71
Serum Bicarbonate Concentration, Change from Baseline, Median (serum bicarbonate; Week 52): 1.00
Serum Bicarbonate Concentration, Mean (serum bicarbonate; Week 52): 24.63
Serum Bicarbonate Concentration, Median (serum bicarbonate; Week 52): 25.00
Serum Bicarbonate Concentration, Treatment Differences, LS Mean (KRX-0502) − LS Mean (control), (SE) (serum bicarbonate; Week 52): −0.70 (0.44)
mean increase in serum bicarbonate concentration (serum bicarbonate; administered for a period of 52 weeks, stated as embodiment): 0.71 mEq/L
